Measured values reported in patent US9717714B2, “Spirocyclic CETP inhibitors” (Merck Sharp & Dohme Corp., priority 2012, dated 2017).

The compounds below were run against endogenous CETP from serum (Homo sapiens (Human), UniProt P11597) (assay: RTA assay in 95% human serum (CETP-catalyzed CE and TG transfer, endogenous CETP)). Conditions: 95% human serum; read-out: RTA (95% HS).
endogenous CETP from serum, sequence (P11597 18-493 limits assumed): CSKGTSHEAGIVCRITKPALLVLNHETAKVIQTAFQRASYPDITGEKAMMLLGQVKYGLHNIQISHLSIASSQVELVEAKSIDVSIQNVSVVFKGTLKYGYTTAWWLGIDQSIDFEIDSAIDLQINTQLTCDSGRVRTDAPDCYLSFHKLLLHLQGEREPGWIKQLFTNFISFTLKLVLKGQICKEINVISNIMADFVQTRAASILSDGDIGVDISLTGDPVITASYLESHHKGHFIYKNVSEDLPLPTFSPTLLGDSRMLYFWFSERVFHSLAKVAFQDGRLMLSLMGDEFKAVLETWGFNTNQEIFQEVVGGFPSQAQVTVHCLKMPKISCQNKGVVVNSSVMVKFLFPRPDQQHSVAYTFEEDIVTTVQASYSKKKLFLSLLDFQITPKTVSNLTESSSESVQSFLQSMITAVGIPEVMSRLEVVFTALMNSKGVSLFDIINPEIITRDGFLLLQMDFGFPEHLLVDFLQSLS
Format: biochemical
Text: In Vitro Radioactive Assays of CETP-Catalyzed CE and TG Transfer (RTA Assay)
Reagents and sources are: [3H] cholesteryl oleate (GE #TRK.886), [3H] Triolein (Perkin-Elmer NET-431), Butylated hydroxyl toluene (Aldrich, #D4740-4), DOPC (Sigma, #P6354), Sodium Bromide (Fisher scientific #S255-500), PEG 8000 (Fisher, #BP233-1), and human HDL (Intracel Corp #RP-036).
Both assays measure the transfer of [3H] cholesteryl oleate or [3H] triolein from exogenous LDL to HDL.
Radiolabeled donor particles are generated by first combining 100 μl of 200 μM butylated hydroxyl toluene in CHCl3, 216 μL of 21.57 mM DOPC in EtOH, and either 500 μCi [3H]-triolein (Perkin Elmer #NET-431) or 500 μCi [3H]-cholesteryl oleate (GE #TRK886) in a glass tube. Reagents are mixed, dried under nitrogen, and then resuspended in 2 mL of 50 mM Tris, 27 μM EDTA at pH 7.4. After a brief vortex, the solution is sonicated until clear and mixed with 20 mL of fresh human serum. The mixture is incubated overnight at 37° C. The [3H] labeled LDL substrate is separated at 1.063 g/ml density by sequential ultracentrifugal flotation in NaBr according to the method of Havel, Eder, et al., 1955, and Chapman, Goldstein, et al., 1981. Once isolated the particles are dialyzed 3× in CETP buffer (50 mM Tris, pH 7.4, 100 mM NaCl, 1 mM EDTA). Human HDL is purchased from Intracel and used as the acceptor particles.
Transfer assays are performed in a 96-well v-bottom polypropylene plate. For the RTA using recombinant CETP (2% RTA), an assay cocktail is prepared with the final concentrations 128 μg/mL HDL, 20 nM rCETP, 2% human serum, and 1×CETP buffer. 1 μL of each test compound diluted in DMSO is added to 47 μL of assay cocktail per well and incubated at 37° C. for 1 hour. To initiate the transfer reaction, 2 μL radiolabeled LDL is added. After an additional 60 min of incubation at 37° C., the transfer action is terminated by precipitation of LDL with an equal volume of 20% W/V PEG 8000. The plates are centrifuged at 2000 rpm for 30 minutes at 4° C. A 40 μL aliquot of the HDL-containing supernatant is transferred to a Packard Optiplate™ with 200 μL of MicroScint™ 20. After mixing, plates are counted by liquid scintillation. Counts present in the supernatant for blanks (wells containing only HDL acceptor, CETP buffer and DMSO) are subtracted from those containing test compounds and used to correct for non-specific transfer.
For the transfer assay using endogenous CETP from serum (95% RTA), the same procedure is used except that human serum is added such that a final concentration of serum of 95% of the total assay volume is achieved, yielding a concentration of approximately 15 nM endogenous CETP in the assay. This is then combined with HDL and CETP buffer and the reaction proceeds as above and is terminated as described.
Comparison of the counts of samples with inhibitors to an uninhibited (DMSO only) positive control yield a percent inhibition. A plot of percent inhibition vs. log of inhibitor concentration, fit to a Sigmoidal 4 parameter equation is used to calculate IC50.
Starting materials are commercially available or are made using known procedures or as shown below. The examples may be synthesized according to the general schemes provided below and through the synthetic intermediates that are described. […] When compounds of Formula I or Formula II are mentioned herein, such compounds include compounds defined generically by Formula I or II and also the specific examples disclosed herein.
With `COc1ccc([C@H]2C[C@H](CO)C2)cc1-c1ccc(C(F)(F)F)nc1CN1C(=O)O[C@H](c2cc(C(F)(F)F)cc(C(F)(F)F)c2)C12CC2` [Example 6, (7R)-7-[3,5-bis(trifluoromethyl)phenyl]-4-{[3-{5-[trans-3-(hydroxymethyl)cyclobutyl]-2-methoxyphenyl}-6-(trifluoromethyl)pyridin-2-yl]methyl}-6-oxa-4-azaspiro[2.4]heptan-5-one] the IC50 was 1850 nM. Compound `COC(=O)c1ccc(-c2ccc(OC)c(-c3cnc(SC)nc3CN3C(=O)O[C@H](c4cc(C(F)(F)F)cc(C(F)(F)F)c4)C34CCC4)c2)c(C)c1` [Example 17, methyl 3′-[4-({(8R)-8-[3,5-bis(trifluoromethyl)phenyl]-6-oxo-7-oxa-5-azaspiro[3.4]oct-5-yl}methyl)-2-(methylsulfanyl)pyrimidin-5-yl]-4′-methoxy-2-methylbiphenyl-4-carboxylate] has an IC50 of 913 nM. In the case of `COc1ccc([C@H]2C[C@H](C(=O)O)C2)cc1-c1ccc(C(F)(F)F)nc1CN1C(=O)O[C@H](c2cc(C(F)(F)F)cc(C(F)(F)F)c2)C12CC2` [Example 1, trans-3-{3-[2-({(7R)-7-[3,5-bis(trifluoromethyl)phenyl]-5-oxo-6-oxa-4-azaspiro[2.4]hept-4-yl}methyl)-6-(trifluoromethyl)pyridin-3-yl]-4-methoxyphenyl}cyclobutanecarboxylic acid], the IC50 is reported as 962 nM. Work on `COc1ccc(-c2ccc(C(=O)O)cc2C)cc1-c1cnc(N(C)C)nc1CN1C(=O)O[C@H](c2cc(C(F)(F)F)cc(C(F)(F)F)c2)C12CC2` [Example 9, 3′-[4-({(7R)-7-[3,5-bis(trifluoromethyl)phenyl]-5-oxo-6-oxa-4-azaspiro[2.4]hept-4-yl}methyl)-2-(dimethylamino)pyrimidin-5-yl]-4′-methoxy-2-methylbiphenyl-4-carboxylic acid] yielded an IC50 of 55.5 nM.

Same assay, conditions: generally RTA assay in 95% human serum; read-out: IC50
`COc1ccc(-c2ccc(C(=O)O)cc2C)cc1-c1cnc(N2CC(F)C2)nc1CN1C(=O)O[C@H](c2cc(C(F)(F)F)cc(C(F)(F)F)c2)C12CCC2` [Example 12, 3′-[4-({(8R)-8-[3,5-bis(trifluoromethyl)phenyl]-6-oxo-7-oxa-5-azaspiro[3.4]oct-5-yl}methyl)-2-(3-fluoroazetidin-1-yl)pyrimidin-5-yl]-4′-methoxy-2-methylbiphenyl-4-carboxylic acid] showed an IC50 of 73 nM. In the case of `COc1ccc(-c2ccc(C(=O)O)cc2C)cc1-c1cnc(N(C)S(C)(=O)=O)nc1CN1C(=O)O[C@H](c2cc(C(F)(F)F)cc(C(F)(F)F)c2)C12CCC2` [Example 14, 3′-[4-({(8R)-8-[3,5-bis(trifluoromethyl)phenyl]-6-oxo-7-oxa-5-azaspiro[3.4]oct-5-yl}methyl)-2-[methyl (methylsulfonyl)amino]pyrimidin-5-yl}-4′-methoxy-2-methylbiphenyl-4-carboxylic acid], the IC50 is reported as 561 nM. In the case of `COc1ccc(CCC(=O)O)cc1-c1ccc(C(F)(F)F)nc1CN1C(=O)O[C@H](c2cc(C(F)(F)F)cc(C(F)(F)F)c2)C12CC2` [Example 5, 3-{3-[2-({(7R)-7-[3,5-bis(trifluoromethyl)phenyl]-5-oxo-6-oxa-4-azaspiro[2.4]hept-4-yl}methyl)-6-(trifluoromethyl)pyridin-3-yl]-4-methoxyphenyl}propanoic acid], the IC50 is reported as 3360 nM. `COc1ccc(-c2ccc(C(=O)O)cc2C)cc1-c1cnc(N2CC(F)C2)nc1CN1C(=O)O[C@H](c2cc(C(F)(F)F)cc(C(F)(F)F)c2)C12CC2` [Example 15, 3′-[4-({(7R)-7-[3,5-bis(trifluoromethyl)phenyl]-5-oxo-6-oxa-4-azaspiro[2.4]hept-4-yl}methyl)-2-(3-fluoroazetidin-1-yl)pyrimidin-5-yl]-4′-methoxy-2-methylbiphenyl-4-carboxylic acid] was tested, and the IC50 was 104 nM. `COc1ccc(-c2ccc(CO)cc2C)cc1-c1cnc(N2CC(F)C2)nc1CN1C(=O)O[C@H](c2cc(C(F)(F)F)cc(C(F)(F)F)c2)C12CCC2` [Example 7, (8R)-8-[3,5-bis(trifluoromethyl)phenyl]-5-({2-(3-fluoroazetidin-1-yl)-5-[4′-(hydroxymethyl)-4-methoxy-2′-methylbiphenyl-3-yl]pyrimidin-4-yl}methyl)-7-oxa-5-azaspiro[3.4]octan-6-one] gave an IC50 of 68 nM. `COc1cc(F)c(-c2ccc(C(=O)O)cc2C)cc1-c1ccc(C(F)(F)F)nc1CN1C(=O)O[C@H](c2cc(C(F)(F)F)cc(C(F)(F)F)c2)C12CC2` [Example 3, 5′-[2-({(7R)-7-[3,5-bis(trifluoromethyl)phenyl]-5-oxo-6-oxa-4-azaspiro[2.4]hept-4-yl}methyl)-6-(trifluoromethyl)pyridin-3-yl]-2′-fluoro-4′-methoxy-2-methylbiphenyl-4-carboxylic acid] gave an IC50 of 119 nM. Work on `COc1cc(F)c(C(C)C)cc1-c1cnc(N(C)C)nc1CN1C(=O)OC(c2cc(C(F)(F)F)cc(C(F)(F)F)c2)C12CCC2` (stereo not shown) [Example 11, 8-[3,5-bis(trifluoromethyl)phenyl]-5-({2-(dimethylamino)-5[4-fluoro-2-methoxy-5-(1-methylethyl)phenyl]pyrimidin-4-yl}methyl)-7-oxa-5-azaspiro[3.4]octan-6-one] yielded an IC50 of 318 nM. `COc1ccc(-c2ccc(C(=O)O)cc2C)cc1-c1cnc(N2CCOCC2)nc1CN1C(=O)O[C@H](c2cc(C(F)(F)F)cc(C(F)(F)F)c2)C12CC2` [Example 16, 3′-[4-({(7R)-7-[3,5-bis(trifluoromethyl)phenyl]-5-oxo-6-oxa-4-azaspiro[2.4]hept-4-yl}methyl)-2-morpholin-4-ylpyrimidin-5-yl]-4′-methoxy-2-methylbiphenyl-4-carboxylic acid] was tested, and the IC50 was 272 nM. With `COc1cc(F)c(C(C)C)cc1-c1cnc(N(C)C)nc1CN1C(=O)OC(c2cc(C(F)(F)F)cc(C(F)(F)F)c2)C12CC2` (stereo not shown) [Example 10, 7-[3,5-bis(trifluoromethyl)phenyl]-4-({2-(dimethylamino)-5-[4-fluoro-2-methoxy-5-(1-methylethyl)phenyl]pyrimidin-4-yl}methyl)-6-oxa-4-azaspiro[2.4]heptan-5-one] the IC50 was 345 nM. `COc1ccc(-c2ccc(C(=O)O)cc2C)cc1-c1cnc(N2CCOCC2)nc1CN1C(=O)O[C@H](c2cc(C(F)(F)F)cc(C(F)(F)F)c2)C12CCC2` [Example 13, 3′-[4-({(8R)-8-[3,5-bis(trifluoromethyl)phenyl]-6-oxo-7-oxa-5-azaspiro[3.4]oct-5-yl}methyl)-2-morpholin-4-ylpyrimidin-5-yl]-4′-methoxy-2-methylbiphenyl-4-carboxylic acid] was tested, and the IC50 was 242 nM. Work on `COc1ccc(-c2ccc(C(=O)O)cc2C)cc1-c1ccc(C(F)(F)F)nc1CN1C(=O)O[C@H](c2cc(C(F)(F)F)cc(C(F)(F)F)c2)C12CC2` [Example 2, 3′-[2-({(7R)-7-[3,5-bis(trifluoromethyl)phenyl]-5-oxo-6-oxa-4-azaspiro[2.4]hept-4-yl}methyl)-6-(trifluoromethyl)pyridine-3-yl]-4′-methoxy-2-methylbiphenyl-4-carboxylic acid] yielded an IC50 of 212 nM. `COC(=O)c1ccc(-c2ccc(OC)c(-c3cnc(SC)nc3CN3C(=O)O[C@H](c4cc(C(F)(F)F)cc(C(F)(F)F)c4)C34CC4)c2)c(C)c1` [Example 18, methyl 3′-[4-({(7R)-7-[3,5-bis(trifluoromethyl)phenyl]-5-oxo-6-oxa-4-azaspiro[2.4]hept-4-yl}methyl)-2-(methylsulfanyl)pyrimidin-5-yl]-4′-methoxy-2-methylbiphenyl-4-carboxylate] gave an IC50 of 596 nM.
